Here are results for five compounds from PMC12816581 (Nature Communications, 2025).

The structures appear in SMILES notation. pKd: −log10 of the molar value.

Data set [1] is described as follows: Chiral stability assessment via hydrogen-deuterium. The format is physicochemical. The following applies: binding buffer with D2O, 4 °C, 8 h; indicates potential spontaneous racemization.
Data set [2] addresses T1, WDR91 (Homo sapiens, UniProt A4D1P6).
T1 sequence (A4D1P6 1-747): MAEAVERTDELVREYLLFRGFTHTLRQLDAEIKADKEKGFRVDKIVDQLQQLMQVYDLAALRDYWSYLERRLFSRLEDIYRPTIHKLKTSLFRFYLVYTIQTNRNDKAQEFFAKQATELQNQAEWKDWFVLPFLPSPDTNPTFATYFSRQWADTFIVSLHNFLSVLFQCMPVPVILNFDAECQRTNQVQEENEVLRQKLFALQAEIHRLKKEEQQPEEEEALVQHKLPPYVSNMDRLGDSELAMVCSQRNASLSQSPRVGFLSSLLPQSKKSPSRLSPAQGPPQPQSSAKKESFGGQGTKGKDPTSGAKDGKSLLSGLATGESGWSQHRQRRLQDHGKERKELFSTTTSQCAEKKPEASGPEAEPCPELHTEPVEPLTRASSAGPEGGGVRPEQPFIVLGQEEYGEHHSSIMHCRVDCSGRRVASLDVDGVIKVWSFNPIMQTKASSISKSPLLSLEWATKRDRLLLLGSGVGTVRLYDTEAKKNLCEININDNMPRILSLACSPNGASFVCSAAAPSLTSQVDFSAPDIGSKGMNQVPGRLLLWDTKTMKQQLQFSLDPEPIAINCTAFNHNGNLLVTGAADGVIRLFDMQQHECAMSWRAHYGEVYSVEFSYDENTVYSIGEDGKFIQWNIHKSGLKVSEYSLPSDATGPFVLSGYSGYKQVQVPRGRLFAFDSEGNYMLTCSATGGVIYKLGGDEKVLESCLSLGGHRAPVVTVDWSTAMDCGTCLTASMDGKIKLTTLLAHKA
It is filed as binding.

Data set [3] has as its target T2, USP21 (Homo sapiens, UniProt Q9UK80).
T2 sequence (Q9UK80 1-565): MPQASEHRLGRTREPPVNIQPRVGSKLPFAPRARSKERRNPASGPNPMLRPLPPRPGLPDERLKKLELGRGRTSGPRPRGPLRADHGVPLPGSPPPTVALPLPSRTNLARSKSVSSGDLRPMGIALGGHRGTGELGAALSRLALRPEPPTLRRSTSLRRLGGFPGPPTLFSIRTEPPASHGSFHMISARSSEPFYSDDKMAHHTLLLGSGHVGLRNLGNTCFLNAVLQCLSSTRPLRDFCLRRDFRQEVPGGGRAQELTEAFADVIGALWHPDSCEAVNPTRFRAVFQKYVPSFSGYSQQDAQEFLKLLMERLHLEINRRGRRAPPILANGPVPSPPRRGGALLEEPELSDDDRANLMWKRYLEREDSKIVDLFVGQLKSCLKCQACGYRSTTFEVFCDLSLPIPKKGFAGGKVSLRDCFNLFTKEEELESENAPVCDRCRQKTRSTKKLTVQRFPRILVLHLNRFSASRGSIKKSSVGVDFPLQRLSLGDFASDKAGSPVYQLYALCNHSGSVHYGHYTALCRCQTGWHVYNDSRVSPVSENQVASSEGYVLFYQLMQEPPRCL
In words: E-ASMS affinity selection. It is filed as binding. The following applies: USP21 beads, negative control protein.

The target in data set [4] is DCAF1 (Homo sapiens, UniProt Q9Y4B6). Kind of data set: E-ASMS affinity selection. The following applies: DCAF1 beads, negative control protein. It is filed as binding.
Chain of DCAF1 (Q9Y4B6 whole entry): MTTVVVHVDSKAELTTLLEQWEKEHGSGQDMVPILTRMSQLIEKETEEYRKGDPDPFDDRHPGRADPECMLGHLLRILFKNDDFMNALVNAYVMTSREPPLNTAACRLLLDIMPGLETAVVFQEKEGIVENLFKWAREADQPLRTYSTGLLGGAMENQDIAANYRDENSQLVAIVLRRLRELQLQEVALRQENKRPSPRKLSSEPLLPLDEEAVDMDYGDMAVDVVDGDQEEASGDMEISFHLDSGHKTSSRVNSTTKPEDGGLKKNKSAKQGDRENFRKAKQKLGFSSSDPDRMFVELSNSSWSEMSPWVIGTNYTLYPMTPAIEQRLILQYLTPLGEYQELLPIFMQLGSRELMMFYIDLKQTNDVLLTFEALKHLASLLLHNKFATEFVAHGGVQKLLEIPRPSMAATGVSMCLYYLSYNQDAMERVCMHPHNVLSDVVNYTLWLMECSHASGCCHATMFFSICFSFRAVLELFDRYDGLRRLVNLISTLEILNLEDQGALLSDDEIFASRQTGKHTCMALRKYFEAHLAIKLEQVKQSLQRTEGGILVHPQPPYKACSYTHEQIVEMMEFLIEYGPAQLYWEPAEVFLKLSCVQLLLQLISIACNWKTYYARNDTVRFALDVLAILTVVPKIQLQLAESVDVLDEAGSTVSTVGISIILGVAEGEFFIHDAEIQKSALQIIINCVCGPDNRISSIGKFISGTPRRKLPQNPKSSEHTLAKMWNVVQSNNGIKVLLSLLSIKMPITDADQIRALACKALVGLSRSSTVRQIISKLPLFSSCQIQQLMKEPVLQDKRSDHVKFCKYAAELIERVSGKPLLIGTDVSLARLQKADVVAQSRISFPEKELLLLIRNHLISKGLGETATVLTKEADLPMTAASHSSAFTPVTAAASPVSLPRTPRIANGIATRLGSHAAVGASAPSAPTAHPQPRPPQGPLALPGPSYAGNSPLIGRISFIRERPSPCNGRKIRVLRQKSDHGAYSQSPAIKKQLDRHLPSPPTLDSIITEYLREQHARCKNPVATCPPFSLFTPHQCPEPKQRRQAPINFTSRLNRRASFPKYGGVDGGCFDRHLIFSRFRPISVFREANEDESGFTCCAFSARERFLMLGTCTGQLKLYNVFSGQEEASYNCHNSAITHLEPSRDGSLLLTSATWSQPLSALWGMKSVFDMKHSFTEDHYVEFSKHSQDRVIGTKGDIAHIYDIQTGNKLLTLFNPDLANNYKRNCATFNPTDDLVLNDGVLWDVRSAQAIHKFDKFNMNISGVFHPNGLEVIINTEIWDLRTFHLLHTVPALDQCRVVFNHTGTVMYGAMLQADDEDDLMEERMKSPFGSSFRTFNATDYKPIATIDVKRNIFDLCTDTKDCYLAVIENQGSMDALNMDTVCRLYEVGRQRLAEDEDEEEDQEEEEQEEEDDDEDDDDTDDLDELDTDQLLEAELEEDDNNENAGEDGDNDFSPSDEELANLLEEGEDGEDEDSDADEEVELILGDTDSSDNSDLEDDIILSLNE
Data set [5] addresses PRMT5 (Homo sapiens, UniProt O14744). In words: E-ASMS affinity selection. The format is binding.
The target in data set [6] is T3, WDR55 (Homo sapiens, UniProt Q9H6Y2).
T3 sequence (Q9H6Y2 1-383): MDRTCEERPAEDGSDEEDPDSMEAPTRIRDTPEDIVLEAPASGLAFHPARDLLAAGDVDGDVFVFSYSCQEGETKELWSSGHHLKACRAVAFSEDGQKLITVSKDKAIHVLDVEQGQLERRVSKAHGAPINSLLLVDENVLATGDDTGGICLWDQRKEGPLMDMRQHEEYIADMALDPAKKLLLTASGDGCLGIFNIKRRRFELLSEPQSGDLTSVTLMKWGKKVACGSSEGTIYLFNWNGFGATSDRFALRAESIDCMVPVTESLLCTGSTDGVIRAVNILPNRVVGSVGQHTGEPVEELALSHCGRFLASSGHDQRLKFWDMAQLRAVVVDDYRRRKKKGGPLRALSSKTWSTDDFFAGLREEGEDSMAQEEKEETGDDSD
The format is binding.

Data set [7] deals with T3, WDR55. In words: biochemical. The format is binding.
The target of data set [8] is DDB1 (Homo sapiens, UniProt Q16531). Kind of data set: E-ASMS affinity selection. It is filed as binding.
Chain of DDB1 (Q16531 whole entry): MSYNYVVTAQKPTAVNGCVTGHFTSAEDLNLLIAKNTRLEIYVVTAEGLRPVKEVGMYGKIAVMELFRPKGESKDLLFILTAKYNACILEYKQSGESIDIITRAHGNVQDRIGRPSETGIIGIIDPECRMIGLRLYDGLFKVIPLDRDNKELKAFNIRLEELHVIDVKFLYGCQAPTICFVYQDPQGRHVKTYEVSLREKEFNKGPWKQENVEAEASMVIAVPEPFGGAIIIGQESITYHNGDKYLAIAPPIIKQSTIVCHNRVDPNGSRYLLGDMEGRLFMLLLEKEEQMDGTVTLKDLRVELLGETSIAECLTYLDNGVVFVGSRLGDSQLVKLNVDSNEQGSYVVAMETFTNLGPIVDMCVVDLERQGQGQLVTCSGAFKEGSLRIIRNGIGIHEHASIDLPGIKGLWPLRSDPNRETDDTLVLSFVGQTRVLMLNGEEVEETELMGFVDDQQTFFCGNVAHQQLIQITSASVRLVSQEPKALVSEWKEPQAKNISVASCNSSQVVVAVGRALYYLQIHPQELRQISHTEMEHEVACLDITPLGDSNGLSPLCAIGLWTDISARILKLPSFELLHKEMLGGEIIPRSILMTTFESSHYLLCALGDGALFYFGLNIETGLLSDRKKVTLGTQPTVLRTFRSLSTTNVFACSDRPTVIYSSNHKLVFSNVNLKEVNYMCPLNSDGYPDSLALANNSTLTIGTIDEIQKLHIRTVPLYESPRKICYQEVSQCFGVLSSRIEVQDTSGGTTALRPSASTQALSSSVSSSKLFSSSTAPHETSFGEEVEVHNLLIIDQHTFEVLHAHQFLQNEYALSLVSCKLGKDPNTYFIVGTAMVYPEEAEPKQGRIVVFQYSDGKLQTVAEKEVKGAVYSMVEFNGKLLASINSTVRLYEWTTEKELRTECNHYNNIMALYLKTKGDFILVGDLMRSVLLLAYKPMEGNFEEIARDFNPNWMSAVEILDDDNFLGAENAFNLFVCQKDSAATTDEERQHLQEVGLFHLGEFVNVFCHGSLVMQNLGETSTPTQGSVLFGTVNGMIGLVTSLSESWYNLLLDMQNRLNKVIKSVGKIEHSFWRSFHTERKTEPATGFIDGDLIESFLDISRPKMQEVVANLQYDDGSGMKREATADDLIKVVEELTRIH

Chain of PRMT5 (O14744 whole entry): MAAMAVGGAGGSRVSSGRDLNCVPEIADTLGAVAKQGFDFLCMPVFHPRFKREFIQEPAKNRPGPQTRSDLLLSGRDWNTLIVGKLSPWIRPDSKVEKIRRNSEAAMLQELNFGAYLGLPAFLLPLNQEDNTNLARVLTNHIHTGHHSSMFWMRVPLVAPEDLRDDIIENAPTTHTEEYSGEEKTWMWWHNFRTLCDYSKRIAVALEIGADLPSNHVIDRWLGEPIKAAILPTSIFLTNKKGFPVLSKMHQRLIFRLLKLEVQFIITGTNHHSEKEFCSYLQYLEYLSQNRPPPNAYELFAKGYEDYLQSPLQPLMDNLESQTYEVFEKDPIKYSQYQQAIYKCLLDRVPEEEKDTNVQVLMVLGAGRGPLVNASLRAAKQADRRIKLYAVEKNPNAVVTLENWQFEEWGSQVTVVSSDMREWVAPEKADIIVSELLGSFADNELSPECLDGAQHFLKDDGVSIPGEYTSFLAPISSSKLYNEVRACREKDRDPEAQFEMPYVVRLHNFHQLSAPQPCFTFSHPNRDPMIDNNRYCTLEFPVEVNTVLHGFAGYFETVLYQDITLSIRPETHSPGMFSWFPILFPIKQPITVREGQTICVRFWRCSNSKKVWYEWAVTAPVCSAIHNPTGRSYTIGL
Chain of PRMT5 (Q9BQA1 whole entry partner): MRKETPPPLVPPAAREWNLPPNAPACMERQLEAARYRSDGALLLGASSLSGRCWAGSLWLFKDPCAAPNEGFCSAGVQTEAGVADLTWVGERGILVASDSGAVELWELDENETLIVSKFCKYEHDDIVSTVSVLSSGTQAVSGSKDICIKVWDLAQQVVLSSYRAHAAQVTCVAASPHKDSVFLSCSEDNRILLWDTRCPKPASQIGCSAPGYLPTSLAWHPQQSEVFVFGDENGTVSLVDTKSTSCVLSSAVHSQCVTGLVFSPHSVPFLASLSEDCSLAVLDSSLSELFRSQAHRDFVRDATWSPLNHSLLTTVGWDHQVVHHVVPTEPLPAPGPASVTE

As for `CN1C(=O)C(c2c(-c3ccc(Cl)cc3)[nH]c3c2c(=O)[nH]c(=O)n3C)c2ccccc21` (stereo not drawn) [XS381295], in data set [1], the “Deuterium incorporation (H/D exchange)” value is listed as “showed deuterium incorporation”. In addition, in data set [2] (WDR91-bead eluate), the “Enantioselective binding (chiral chromatography of eluate)” value is on record as “did not show enantioselectivity”. Moreover, the “Enrichment in methanol eluate (E-ASMS)” value in data set [2] (WDR91 beads vs other proteins screened in parallel) is on record as “enriched”.
As to `Nc1cccc2c1CN(C1CCC(=O)NC1=O)C2=O` (stereo not drawn) [Lenalidomide, lenalidomide], the “Enrichment in methanol eluate (E-ASMS)” value in data set [3] is “no significant enrichment”; in data set [4] it was “no significant enrichment”; in data set [5] (PRMT5 beads, negative control protein), “no significant enrichment”.
Consider `Nc1ncnc2c1ccn2[C@@H]1O[C@H]([C@H](O)c2ccccc2)[C@@H](O)[C@H]1O` [(S)-LLY283], for which the “Enantioselective enrichment (chiral chromatography of eluate)” value in data set [5] (PRMT5 eluate) is on record as “Enantioselective enrichment”.
On to `CC1Cc2cc(-c3ccnc4ncnn34)ccc2O1` (stereo not drawn) [XS381774], for which, in data set [6] (WDR55-bead eluate), the “Enantioselective binding (chiral chromatography of eluate)” value is listed as “displayed enantioselectivity”. Further, the “Enrichment in methanol eluate (E-ASMS)” value in data set [6] (WDR55 beads) was “enriched”. For the same compound, in data set [7], the pKd is 4.96.
In the case of `CCOc1cccc(C2CC(=O)Nc3c2c(C)nn3-c2ccc3nncn3n2)c1` (stereo not drawn) [XS381952], the “Enantioselective enrichment (chiral chromatography of eluate)” value in data set [8] (DDB1-bead eluate vs ratio of enantiomers in starting library) was “one of the two enantiomers was clearly enriched”. For the same compound, the “Enrichment in methanol eluate (E-ASMS)” value in data set [8] (DDB1 beads vs other proteins screened in parallel) is “specifically enriched”.

A word on the pKd: it is the negative decadic logarithm of the Kd, by convention in mol/L. Read a low pKd as a large Kd.
